This is an account of results in BindingDB's records for patent US20250213571 (Alumis, 2025).

This test concerns the target T1, Non-receptor tyrosine-protein kinase TYK2 [556-888] (Homo sapiens, UniProt P29597).
T1 construct: 556-888
As to the kind of experiment: TYK2 JH2 Domain Binding Assay. Here is the method: Binding constants for the compounds described herein against the JH2 domain were determined by the following protocol for a KINOMEscan assay (DiscoveRx). A fusion protein of a partial length construct of human TYK2 (JH2domain-pseudokinase) (amino acids G556 to D888 based on reference sequence NP_003322.3) and the DNA binding domain of NFkB was expressed in transiently transfected HEK293 cells. From these HEK 293 cells, extracts were prepared in M-PER extraction buffer (Pierce) in the presence of Protease Inhibitor Cocktail Complete (Roche) and Phosphatase Inhibitor Cocktail Set II (Merck) per manufacturers' instructions. The TYK2 (JH2domain-pseudokinase) fusion protein was labeled with a chimeric double-stranded DNA tag containing the NFkB binding site fused to an amplicon for qPCR readout, which was added directly to the expression extract (the final concentration of DNA-tag in the binding reaction is 0.1 nM).

Structures are written as SMILES.

T1 sequence (P29597 556-888): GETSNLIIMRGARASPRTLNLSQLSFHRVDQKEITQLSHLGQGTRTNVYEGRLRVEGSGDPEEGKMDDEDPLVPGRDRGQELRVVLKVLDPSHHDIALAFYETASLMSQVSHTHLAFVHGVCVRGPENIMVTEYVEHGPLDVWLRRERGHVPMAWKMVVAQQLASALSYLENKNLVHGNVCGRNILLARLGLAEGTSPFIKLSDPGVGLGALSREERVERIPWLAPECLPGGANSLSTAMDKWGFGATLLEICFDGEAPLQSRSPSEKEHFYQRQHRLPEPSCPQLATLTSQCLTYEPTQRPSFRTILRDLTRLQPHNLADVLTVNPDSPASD

The compound `CNc1cc2nn3c(cnc13)C(=O)N[C@H](C)COCc1cc(c3c(c1)ncn3C)N2` [US20250213571, Compound 8] displayed a Kd below 10 nM.
